From US8404664B2, “Phosphonated Rifamycins and uses thereof for the prevention and treatment of bone and joint infections” (Targanta Therapeutics, Inc., priority 2005, dated 2013)
Converted amounts (≈) assume the structure as drawn.

Key:
[1] = test system: S. aureus ATCC 13709; test: Antibacterial susceptibility (MIC), NCCLS broth microdilution; assay type: cell-based; details: for Antibacterial activity (in words, summary of Table 1): summary over the strains of Table 1
Procedure: (§1) Susceptibility of S. aureus strains to the known antibiotics and synthesized compounds was determined by following the guidelines set by NCCLS (M26-A). Compounds were diluted two-fold serially in DMSO and transferred to cation-adjusted Mueller Hinton broth (CAMHB; Becton Dickinson). 50 μL of compounds diluted in CAMHB was mixed with 100 μL of bacteria diluted in CAMHB in 96-well microtiter plates. The final concentration of micro-organisms in the assay was 5×10^5 c.f.u. per mL and the final concentration of DMSO in the assay was 1.25%. Assays were set up in duplicate and incubated at 37° C. for 18 h. The lowest concentration of compound that inhibited visible growth was reported as the minimum inhibitory concentration (MIC).

[2] = test system: S. aureus ATCC 43300 (Fluoroquinolone sensitive MRSA); test: as above; assay type: cell-based
Procedure: as §1

[3] = test system: S. aureus BK85 (Fluoroquinolone resistant MRSA); test: as above; assay type: cell-based
Procedure: as §1

[4] = test system: S. aureus RN4220; test: as above; assay type: cell-based; details: CAMHB, 37° C., 18 h
Procedure: as §1

[5] = test system: E. coli LBB925 (tolC mutant); test: as above; assay type: cell-based; details: tolC mutant
[6] = Regeneration of drug from bone powder-bound prodrug; assay type: in vitro ADME; details: for % Conversion of bone-bound prodrug to parent drug: 24 h incubation, 37° C.; for Impact of the medium on the rate of regeneration of parent drug (in words): serum compared to PBS
Procedure: Amounts of parent drug “regenerated” from the phosphonated prodrug were measured as follows. Washed bone powder-bound prodrugs from the above experiment were resuspended in 400 μL PBS+2% DMSO or in 400 μL 50% (v/v in PBS+2% DMSO) human or rat serum. The suspension was incubated overnight at 37° C., centrifuged at 13,000 rpm for 2 min and the supernatant was recovered. The amount of regenerated parent drug in the supernatant was determined by measurements using the microbiological assay that was previously described for the prodrugs themselves. The amount of prodrug was deduced from standard curves of known amounts of parent drug that were used as reference for each experiment.

[7] = test system: S. aureus ATCC 13709 Novobiocin resistant mutant (bone infection); test: Prophylactic efficacy in rat model of S. aureus bone infection; assay type: in vivo
Procedure: Specifically, a spontaneous Novobiocin resistant mutant strain of S. aureus ATCC 13709 (a clinical osteomyelitis isolate), was grown overnight at 37° C. in brain heart infusion broth (BHIB). After 16 h of growth, cells were subcultured into fresh BHIB and incubated for 4 to 5 h at 37° C. The cells were washed twice with phosphate-buffered saline (PBS) and resuspended in BHIB supplemented with 10% (vol./vol.) fetal bovine serum at a density of approximately 10^10 colony forming units (CFU)/ml (based upon turbidimetry). The suspension was aliquoted and a portion was used to check the CFU count. The culture was stored frozen (−80° C.) and was used without subculture. For use as an inoculum the culture was thawed, diluted in PBS and kept in an ice bath until it was used.
Animals were infected as described by O'Reilly et al. (Antimicrobial Agents and Chemotherapy (1992), 36(12): 2693-97) to generate the bone infection. Female CD rats (age, 57 to 70 days; n=5/group; Charles River, St-Constant, Canada) were anaesthetized by isofluorane before and during the surgery. Following complete induction of anesthesia, the rat was placed ventral side up and hair was shaved from the surgical site. The skin over the leg was cleaned and disinfected (proviodine-ethanol 70%). A longitudinal incision below the knee joint was made in the sagital plane. The incision was made over the bone below the “knee joint” (tibia head or condyle) but not completely extending to the ankle. A high speed drill fitted with a 2 mm bulb bit was used to drill a hole into the medullar cavity of the tibia. Rats were injected intra-tibially with 0.05 ml 5% sodium morrhuate (sclerosing agent) and then with 0.05 ml of S. aureus suspension (ca. 2×10^7 CFU/rat). The hole was sealed by applying a small amount of dry dental cement which immediately absorbs fluids and adheres to the site. The wound was closed using 3 metal skin clips. Moxifloxacin (as a positive control) was injected once at 10 mg/kg intravenously 1 h postinfection in saline, while the Rifamycin derived prodrugs (prepared in 0.9% saline) were injected at the dose indicated in Table 3 as a single intravenous bolus at different time points prior to the infection.
Infected rats were sacrificed by CO2 asphyxiation 24 h postinfection to monitor the bacterial CFU count. Infected tibiae were removed, dissected free of soft tissue, and weighed. The bones were ground, resuspended in 5 ml 0.9% NaCl, serially diluted and processed for quantitative cultures. For compounds 50, 68 and 81, 1 ml of the 0.9% NaCl solution was added to 50 mg of charcoal before serial dilutions. Treatment efficacy was measured in terms of Log viable bacteria (Log CFU per gram of bone). […] The limit of detection is 2 Log CFU. […] Differences were considered significant when the P value was <0.05 when comparing treated infected animals to the untreated infected ones. The doses used, the amount of time separating the treatment from the time of infection and the treatment outcomes are shown in Table 3.

[8] = test system: S. aureus ATCC 13709 Novobiocin and Rifampicin resistant variant; test: microbe, parasite or virus in culture; assay type: cell-based; details: for Minimum inhibitory concentration, S. aureus ATCC 13709 variant: Novobiocin and Rifampicin resistant variant
Procedure: as §1

[9] = test system: S. aureus ATCC 13709; test: Antibacterial susceptibility (MIC) in the presence of serum; assay type: cell-based
Procedure: as §1
Susceptibility testing experiments were also carried out in the presence of serum.
These experiments were carried out similar to the susceptibility testing with the following modifications. 75 μL of compounds diluted in CAMHB was mixed with 75 μL of bacteria diluted in 100% serum from any given source (commercial pooled mouse serum (MS) and human serum (HS), Equitech-Bio Inc.) or diluted in 8% purified human serum albumin (HSA) (Calbiochem). The final concentration of animal serum in the assay was 50% and the final concentration of purified human serum albumin in the assay was 4%; the concentrations of all other components were identical to those described for susceptibility testing.

## CO[C@H]1/C=C/O[C@@]2(C)Oc3c(C)c(O)c4c(c3C2=O)C2=NC3(CCN(CC(C)C)CC3)NC2=C(NC(=O)/C(C)=C\C=C\[C@H](C)[C@H](OC(=O)CNC(=O)CC(P(=O)(O)O)P(=O)(O)O)[C@@H](C)[C@@H](O)[C@@H](C)[C@H](OC(C)=O)[C@@H]1C)C4=O [Compound 21, 21-O-(N-(3,3-Bisphosphonopropanoyl)-glycinoyl)-1′,4-didehydro-1-deoxy-1,4-dihydro-5′-(2-methylpropyl)-1-oxorifamycin XIV]
[1]
  Minimum inhibitory concentration, S. aureus ATCC 13709: 16 µg/mL (≈ 14.3 µM)
[2]
  Minimum inhibitory concentration, S. aureus ATCC 43300: 16 µg/mL (≈ 14.3 µM)
[3]
  Minimum inhibitory concentration, S. aureus BK85: 16 µg/mL (≈ 14.3 µM)
[4]
  Minimum inhibitory concentration, S. aureus RN4220: 32 µg/mL (≈ 28.6 µM)
[5]
  Minimum inhibitory concentration, E. coli LBB925: >128 µg/mL
[6]
  Regeneration of parent drug once bound to bone (in words): not able to regenerate
  Impact of the medium on the rate of regeneration of parent drug (in words): not significantly impacted
[6]; 50% Rat Serum
  % Conversion of bone-bound prodrug to parent drug: 0.02%
[6]; PBS
  % Conversion of bone-bound prodrug to parent drug: <lod
[7]; rat bone infection, doses and times of Table 3, t-test p<0.05
  Prophylactic effect (in words): lacks efficacy
[7]; rat tibia 24 h postinfection, single dose 12 mg/kg parent drug equivalent, 1 day prior to infection
  Measured bacterial titer: 6.59 ± 0.90 Log CFU/g of bone

## CCN(CC)CC.CCN(CC)CC.CO[C@H]1/C=C/O[C@@]2(C)Oc3c(C)c(O)c4c(c3C2=O)C2=NC3(CCN(CC(C)C)CC3)NC2=C(NC(=O)/C(C)=C\C=C\[C@H](C)[C@H](OC(=O)CCC(=O)NCCCC(=O)NC(P(=O)(O)O)P(=O)(O)O)[C@@H](C)[C@@H](O)[C@@H](C)[C@H](OC(C)=O)[C@@H]1C)C4=O [Compound 45, 21-O-(3-(3-((bisphosphonomethyl)carbamoyl)propylcarbamoyl)propanoyl)-1′,4-didehydro-1-deoxy-1,4-dihydro-5′-(2-methylpropyl)-1-oxorifamycin XIV]
[1]
  Minimum inhibitory concentration, S. aureus ATCC 13709: 32 µg/mL
  Antibacterial activity (in words, summary of Table 1): near complete loss of activity
[2]
  Minimum inhibitory concentration, S. aureus ATCC 43300: 64 µg/mL
[3]
  Minimum inhibitory concentration, S. aureus BK85: 64 µg/mL
[4]
  Minimum inhibitory concentration, S. aureus RN4220: 64 µg/mL
[8]
  Activity against the Rifampicin resistant variant of S. aureus ATCC13709 (in words): complete lack of activity
  Minimum inhibitory concentration, S. aureus ATCC 13709 variant: >128 µg/mL
[9]
  Impact of serum on the MICs (in words): no impact
  Minimum inhibitory concentration, S. aureus ATCC 13709 + 50% Human Serum: 64 µg/mL
  Minimum inhibitory concentration, S. aureus ATCC 13709 + 50% Mouse Serum: 128 µg/mL
[5]
  Minimum inhibitory concentration, E. coli LBB925: >128 µg/mL
[6]
  Regeneration of parent drug once bound to bone (in words): not able to regenerate
  Impact of the medium on the rate of regeneration of parent drug (in words): not significantly impacted
[6]; 50% Rat Serum
  % Conversion of bone-bound prodrug to parent drug: 0.002%
[6]; PBS
  % Conversion of bone-bound prodrug to parent drug: <lod

## CCN(CC)CC.CCN(CC)CC.CO[C@H]1/C=C/O[C@@]2(C)Oc3c(C)c(O)c4c(=O)c(c5oc6cc(N7CCN(CC(C)C)CC7)cc(O)c6nc-5c4c3C2=O)NC(=O)/C(C)=C\C=C\[C@H](C)[C@H](OC(=O)CCC(=O)NCCC(=O)NC(P(=O)(O)O)P(=O)(O)O)[C@@H](C)[C@@H](O)[C@@H](C)[C@H](OC(C)=O)[C@@H]1C [Compound 78, 21-O-(3-(2-((bisphosphonomethyl)carbamoyl)ethylcarbamoyl)propanoyl)-1′,4-Didehydro-1-deoxy-1,4-dihydro-3′-hydroxy-5′-[4-(2-methylpropyl)-1-piperazinyl]-1-oxorifamycin VIII]
[1]
  Minimum inhibitory concentration, S. aureus ATCC 13709: 8 µg/mL
  Antibacterial activity (in words, summary of Table 1): near complete loss of activity
[2]
  Minimum inhibitory concentration, S. aureus ATCC 43300: 8 µg/mL
[3]
  Minimum inhibitory concentration, S. aureus BK85: 16 µg/mL
[4]
  Minimum inhibitory concentration, S. aureus RN4220: 16 µg/mL
[8]
  Activity against the Rifampicin resistant variant of S. aureus ATCC13709 (in words): complete lack of activity
  Minimum inhibitory concentration, S. aureus ATCC 13709 variant: >128 µg/mL
[9]
  Minimum inhibitory concentration, S. aureus ATCC 13709 + 50% Human Serum: >128 µg/mL
  Minimum inhibitory concentration, S. aureus ATCC 13709 + 50% Mouse Serum: >128 µg/mL
  Minimum inhibitory concentration, S. aureus ATCC 13709 + 50% Rat Serum: >128 µg/mL
[5]
  Minimum inhibitory concentration, E. coli LBB925: >128 µg/mL
[6]
  Regeneration of parent drug once bound to bone (in words): not able to regenerate
  Impact of the medium on the rate of regeneration of parent drug (in words): significant acceleration
[6]; 50% Rat Serum
  % Conversion of bone-bound prodrug to parent drug: 0.01%
[6]; PBS
  % Conversion of bone-bound prodrug to parent drug: <lod

## CO[C@H]1/C=C/O[C@@]2(C)Oc3c(C)c(O)c4c(=O)c(c5oc6cc(N7CCN(CC(C)C)CC7)cc(O)c6nc-5c4c3C2=O)NC(=O)/C(C)=C\C=C\[C@H](C)[C@H](OC(=O)COC(=O)CCC(=O)NC(P(=O)(O)O)P(=O)(O)O)[C@@H](C)[C@@H](O)[C@@H](C)[C@H](OC(C)=O)[C@@H]1C [Compound 84, 21-O-(2-((3-(bisphosphonomethyl)carbamoyl)propanoyloxy)acetyl)-1′,4-Didehydro-1-deoxy-1,4-dihydro-3′-hydroxy-5′-[4-(2-methylpropyl)-1-piperazinyl]-1-oxorifamycin VIII]
[1]
  Minimum inhibitory concentration, S. aureus ATCC 13709: 1 µg/mL (≈ 0.786 µM)
[2]
  Minimum inhibitory concentration, S. aureus ATCC 43300: 1 µg/mL (≈ 0.786 µM)
[3]
  Minimum inhibitory concentration, S. aureus BK85: 1 µg/mL (≈ 0.786 µM)
[4]
  Minimum inhibitory concentration, S. aureus RN4220: 1 µg/mL (≈ 0.786 µM)
[8]
  Activity against the Rifampicin resistant variant of S. aureus ATCC13709 (in words): complete lack of activity
  Minimum inhibitory concentration, S. aureus ATCC 13709 variant: >128 µg/mL
[9]
  Minimum inhibitory concentration, S. aureus ATCC 13709 + 50% Human Serum: 16 µg/mL
  Minimum inhibitory concentration, S. aureus ATCC 13709 + 50% Mouse Serum: 16 µg/mL
  Minimum inhibitory concentration, S. aureus ATCC 13709 + 50% Rat Serum: 1 µg/mL
[5]
  Minimum inhibitory concentration, E. coli LBB925: >128 µg/mL
[6]
  Regeneration of parent drug once bound to bone (in words): not able to regenerate
  Impact of the medium on the rate of regeneration of parent drug (in words): significant acceleration
[6]; 50% Rat Serum
  % Conversion of bone-bound prodrug to parent drug: 0.12%
[6]; PBS
  % Conversion of bone-bound prodrug to parent drug: <lod
